Values quoted from earlier work, collected in patent US11168056B2, “Process for the manufacturing of (6aR,10aR)-7-propyl-6,6a,7,8,9,10,10a,11-octahydro-[1,3]dioxolo[4′,5′:5,6]benzo[1,2-G]quinoline and (4aR,10aR)-1-propyl-1,2,3,4,4a,5,10,10a-octahydro-benzo[G]quinoline-6,7-diol” (H. Lundbeck A/S, priority 2019, dated 2021).
Read-outs that look alike come from different tables or passages of the source. Blank lines part the entries; values can stand above or below the compound they belong to.

Key:
[1] = rats
[2] = system: animal models relevant for Parkinson's Disease; conditions: various animal models
[3] = man, after oral dosing
PD patients = conditions: intravenous (IV)
[4] = rats; remark: listed apart in the source

Structure (SMILES): CCCN1CCC[C@@H]2CC3=C(CCCC3=O)C[C@H]21 [(Ia)]
- conversion to the active compound (I) [1]: converted to the active compound (I)
- efficacy in animal models relevant for Parkinson's Disease [2]: effective

- hepatic first-pass metabolism [3]: extensive
- oral bioavailability [3]: ~4%
Structure (SMILES): CCCc1cc2c(s1)CN[C@@H]1CCc3cc(OC(C)=O)c(OC(C)=O)cc3[C@@H]21 [Adrogolide]
- antiparkinson efficacy (PD patients): comparable to that of L-DOPA

Structure (SMILES): CCCN1CCC[C@@H]2Cc3c(ccc(O)c3O)C[C@H]21 [compound (I), (4aR,10aR)-1-propyl-1,2,3,4,4a,5,10,10a-octahydro-benzo[g]quinoline-6,7-diol]
- oral bioavailability [4]: low
- efficacy in animal models relevant for Parkinson's Disease [2]: effective

Structure (SMILES): CCCN1CCC[C@@H]2Cc3c(ccc4c3OCO4)C[C@H]21 [compound (Ib), (6aR,10aR)-7-propyl-6,6a,7,8,9,10,10a,11-octahydro-[1,3]dioxolo[4′,5′:5,6]benzo[1,2-g]quinoline]
- conversion of compound (Ib) to compound (I) (human hepatocytes): demonstrated
- conversion of compound (Ib) to compound (I) (rat hepatocytes): demonstrated
- efficacy in animal models relevant for Parkinson's Disease [2]: effective
